Experimental data as given in patent US9757368B2, “Anti-inflammatory agents” (Resverlogix Corp., priority 2009, dated 2017).

Experiments:
hVCAM-1 mRNA = experiment: Quantification of hVCAM-1 mRNA in TNF-α-stimulated HUV-EC-C cells (real-time PCR); type: cell-based, human; set-up: key: Active: an active compound is one that causes a ≧20% inhibition in VCAM-1 mRNA at a concentration less than or equal to 10 μM; details: 1 h pretreatment, TNF-α 10 ng/mL, 24 h, VCAM-1 mRNA normalised to hCyclophilin, compound ≤10 μM
Description: In this example, hVCAM-1 mRNA in tissue culture cells was quantitated to measure the transcriptional inhibition of hVCAM when treated with a compound of the invention.
A human umbilical vein endothelial cell line (HUV-EC-C) was plated in a 96-well plate (5.0×10^3 cells/well) in 100 μL EGM complete media and incubated for 24 h prior to the addition of the compound of interest. The cells were pretreated for 1 h with the test compound in DMSO prior to stimulation with tumor necrosis factor-α (10 ng/mL). The cells were incubated for an additional 24 h before harvest. At time of harvest, the cells were rinsed in 200 μL PBS, and cell lysis solution (70 μL) was then added the cells for 10 min. mRNA was then prepared using the “mRNA Catcher PLUS plate” (Invitrogen), according to the protocol supplied.
(§1) The eluted mRNA was then used in a one-step quantitative real-time PCR reaction, using components of the UltraSense kit together with Applied Biosystems primer-probe mixes. 10 μL of template was amplified with 1.75 μL of hVCAM-1 primer-probe, and 1 μL of hCyclophilin primer probe, and the reaction was carried out in multiplex. Real-time PCR data was analyzed, normalizing the Ct values for hVCAM-1 to hCyclophilin, prior to determining the fold induction of each unknown sample, relative to the control.

hIL-6 mRNA = experiment: Quantification of hIL-6 mRNA in LPS-stimulated U937 macrophages (real-time PCR); type: cell-based, human; set-up: key: Active: an active compound is one that causes a ≧20% inhibition in IL-6 mRNA at a concentration less than or equal to 10 μM; details: U937 cells differentiated with PMA, 1 h pretreatment, LPS 1 μg/mL, 3 h; IL-6 mRNA normalised to hCyclophilin; compound ≤10 μM
Description: In this example, hIL-6 mRNA in tissue culture cells was quantitated to measure the transcriptional inhibition of hIL-6 when treated with a compound of the invention.
A human leukemic monocytic lymphoma cell line (U937) was plated (3.2×10^5 cells per well) in a 96-well plate in 100 μL RPMI 1640+10% FBS, and differentiated into macrophages with PMA (60 ng/mL) for 3 days prior to the addition of the compound of interest. The cells were pretreated for 1 h with the test compound in DMSO prior to stimulation with lipopolysaccharide from Escherichia coli at 1 μg/mL. The cells were incubated for 3 h before harvest. At the time of harvest, cells were rinsed in 200 μL PBS. Cell lysis solution (70 μL) was added the cells for 10 min, and mRNA was then prepared using the “mRNA Catcher PLUS plate” (Invitrogen), according to the protocol supplied.
as §1, with “mRNA isolated” for “mRNA”, “of IL-6” for “of hVCAM-1”, “for hIL-6” for “for hVCAM-1”

Row | SMILES | Inhibition of VCAM-1 expression (hVCAM-1 mRNA) | Inhibition of IL-6 expression (hIL-6 mRNA)
1 | COc1cc(OC)c2c(=O)[nH]c(-c3cc(C)c(OCCNC(C)C)c(C)c3)nc2c1 [Example 44, 2-(4-(2-(isopropylamino)ethoxy)-3,5-dimethylphenyl)-5,7-dimethoxyquinazolin-4(3H)-one] | Active | Active
2 | COc1cc(OC)c2c(=O)[nH]c(-c3cc(C)c(OCCN(C)C(C)=O)c(C)c3)nc2c1 [Example 47, N-(2-(4-(5,7-dimethoxy-4-oxo-3,4-dihydroquinazolin-2-yl)-2,6-dimethylphenoxy)ethyl)-N-methylacetamide] | Active | Active
3 | COc1cc(OC)c2c(=O)[nH]c(-c3cc(C)c(OCCNC#N)c(C)c3)nc2c1 [Example 51, N-(2-(4-(5,7-dimethoxy-4-oxo-3,4-dihydroquinazolin-2-yl)-2,6-dimethylphenoxy)ethyl)cyanamide] | Active | Active
4 | COc1cc(OC)c2c(=O)[nH]c(-c3ccc4cc(CCO)[nH]c4c3)nc2c1 [Example 58, 2-[2-(2-hydroxyethyl)-1H-indol-6-yl]-5,7-dimethoxy-3H-quinazolin-4-one] | Active | Active
